The nature of data set [1]: Stable radical elimination action (DPPH). The settings on record: 0.1 mM DPPH. How it is done: 0.1 mM Diphenyl-2-picrylhydrazyl (DPPH) acetonitrile (CH3CN) solution (3 mL) was placed in a glass test tube, and a DMSO solution of a test compound was added at a 1% dose (30 μL). As a control, 0.1 mM DPPH CH3CN solution (3 mL) containing DMSO (30 μL) was used and for a blank test, CH3CN (3 mL) containing DMSO (30 μL) was used. After standing the solutions at room temperature for 60 min (20 min for Examples 69, 72 and 73), the absorbance at 517 nm was measured by a spectrophotometer. A stable radical inhibitory rate when control was 100% was calculated from [(absorbance of test substance−absorbance of blank test)÷(absorbance of control−absorbance of blank test)].
A general note: Loss of DPPH colour is used to gauge radical scavenging.

Data set [2] is described as follows: Oral administration experiment (plasma concentration). The settings on record: (10 mg)/kg orally, male SD rats, plasma 0.5-6 hr. The format is in vivo. How it is done: The test compound (10 mg)/kg suspended in 5% gum arabic solution was forcedly administered orally to male SD rats (body weight 200-250 g). At 0.5, 1, 2, 4, 6 hr after administration, blood was drawn without anesthesia, and heparin plasma was separated by a conventional method. The concentration of the test compound in the plasma was measured by high performance liquid chromatography.

Data set [3] has as its system cholesterol secretion from the liver. Briefly: Mouse liver lipid secretion-inhibitory activity (Triton WR-1339 method). It counts as in vivo, Slc: ICR mice. The settings on record: (10 mg)/kg orally; 3 hr after Triton WR-1339; mice. The method, then: About 5-week-old male Slc: ICR mice (Japanese SLC) were preliminarily bred for 1 week by feeding only in the daytime (9:00-18:00). During this period, the mice were-allowed to freely take tap water even during night. The mice were divided into a control group and a test compound group (6 mice per group) so that the average and standard deviation of the body weight would be almost the same. Blood (about 80 μL) was drawn from the orbital venous plexus under anesthesia using a glass capillary, and a test compound solution (10 mL/kg) obtained by previously suspending the compound in 5% gum arabic solution at 30 min after the blood sampling was orally administered. At 30 min after the administration, Triton WR-1339 (60 mg/mL) solution previously prepared with physiological saline was administered from the tail vein at a dose of 5 mL/kg. Blood was drawn again from the orbital venous plexus at 3 hr after the administration of Triton WR-1339. Plasma was separated from the blood taken and the total plasma cholesterol (TC) was measured using a commercially available measurement kit (Wako Pure Chemical Industries, Ltd.). The changes in the blood concentration over 3 hr after the Triton WR-1339 administration were calculated and taken as the cholesterol secretion rate from the liver. The secretion rates were compared between the control group and the test compound group, and the cholesterol secretion inhibitory rate by the test compound was calculated.

Data set [4] has as its system THP-1 cell-derived macrophage. Briefly: Cholesterol ester accumulation-inhibitory activity (THP-1 cell-derived macrophage foam cell formation). It counts as cell-based. The settings on record: THP-1 macrophage, acetyl LDL, 3 days. The method, then: THP-1 cells (DAINIPPON PHARMACEUTICAL CO., LTD.) were subcultured in RPMI-1640 medium containing 10% fetal calf serum (FBS), and cells at 6-13th passage after purchase were used. The cells were suspended in FBS-containing RPMI-1640 medium to give a suspension having a concentration of 4×10^5 cells/mL. The cell suspension was seeded on 12-well microplate by 1 mL, and treated with phorbol 12-myristate 13-acetate (PMA, 200 nM) as a differentiation inducer into macrophage. Then, acetyl LDL (400 μg/mL) separately prepared from LDL derived from plasma of a rabbit with genetic hyperlipidemia (KHC rabbit, Japan Laboratory Animals Inc.) was added. A test compound further dissolved in dimethyl sulfoxide (DMSO) and diluted with FBS-containing RPMI-1640 medium and a control solvent were applied. After cultivation in a carbon dioxide incubator for 3 days, the cells were washed with phosphate-buffered saline (pH 7.0), and the lipid was extracted with hexane-isopropanol (3:2). In addition, the cells were lysed with 1N-NaOH, and the protein content was measured. Free cholesterol and cholesterol ester in the lipid extraction sample were measured according to the method of Kunitomo et al. [Japan. J. Pharmacol., 34, 153-158 (1984)]. Cholesterol esters in the control cells and the cells treated with the test compound were compared, and the cholesterol ester accumulation inhibitory rate of the test compound was calculated.

For data set [5], the system named is liver ACAT. Briefly: ACAT inhibitory activity (rabbit liver microsome, cholesteryl oleate production). It counts as biochemical, Japanese white rabbits. The settings on record: 37° C. for 20 min. How it is done:
Male Japanese white rabbits (body weight 2-2.5 kg) were bred on 100 g of a high cholesterol feed (feed added with cholesterol 1%, CLEA Japan, Inc.) daily for 4 weeks and sacrificed by exsanguination under anesthesia. The liver was removed, homogenated and centrifuged at 10,000 rpm and 4° C. for 15 min. The obtained supernatant was further centrifuged at 41,000 rpm and 4° C. for 60 min to give a microsome fraction. To a 0.15 M phosphate buffer were added the microsome suspension as an enzyme specimen, dimethyl sulfoxide (DMSO) or a solution (3 μL) of a test compound in DMSO and [1-14C]-oleoyl-CoA to be a reaction substrate to the total amount of 300 μL. After incubation at 37° C. for 20 min, a mixed solution of chloroform-methanol was added to quench the reaction. Water was added thereto and mixed, and the chloroform layer was separated. The solvent was evaporated to dryness and the residue was redissolved in n-hexane. The resulting solution was subjected to thin layer chromatography using a silica gel plate. The spot of cholesteryl oleate on the silica gel plate was scraped and quantified on a liquid scintillation counter. The ACAT inhibitory activity of the test compound is shown in cholesteryl oleate production inhibitory rate (%) [level of inhibition of cholesteryl oleate production as compared to the control].
(Microsomes from liver hold many membrane-bound enzymes, among them those of drug oxidation.)

The test system of data set [6] is brain homogenate lipid peroxidation. Briefly: Lipid peroxidation-inhibitory action (brain homogenate, MDA). The format is biochemical, SD rat. Particulars: rat brain homogenate, 37° C. for 30 min. How it is done: The brain was removed from male SD rat, and a 50 mM phosphate buffer (pH 7.4, 5-fold amount of brain weight) was added. The mixture was homogenized under ice-cooling for 30 sec, and centrifuged at 4° C., 3200 rpm for 10 min. The supernatant was diluted 5-fold with 50 mM phosphate buffer to give a brain homogenate. A test compound (10 μL) was placed in a glass test tube, the brain homogenate (1 mL) was added, and the mixture was incubated at 37° C. for 30 min. 20% Trichloroacetic acid (1 mL) was added to quench the reaction. The reaction mixture was centrifuged at room temperature, 4000 rpm for 10 min. Thiobarbituric acid (0.2 mL) was added to the supernatant (1 mL) and the mixture was heated at 95° C. for 15 min. The absorbance at 532 nm was measured, and lipid peroxide was quantified as malondialdehyde (MDA). The MDA level was compared between the control and the test compound-added sample, and the lipid peroxidation inhibitory rate was calculated.

Where [7] appears, read: room temperature 20 min (Examples 69, 72 and 73).

The structures appear in SMILES notation.

As to `Cc1cc(NC(=O)[C@@H]2Cc3ccc(N(C)C)cc3CN2C(=O)C(C)(C)C)c(C)c(C)c1O.Cl` [Example 73, 7-dimethylamino-2-(2,2-dimethylpropionyl)-N-(4-hydroxy-2,3,5-trimethylphenyl)-1,2,3,4-tetrahydroisoquinoline-(3S)-carboxamide hydrochloride], the “inhibitory rate (%) (10^−4M), stable radical” value in data set [1] (setting [7]) is reported as 97.0%. The “maximum blood concentration” value in data set [2] came out at 0.55 µg/mL. For the same compound, the “Cholesterol secretion inhibitory rate (%) (10 mg)/kg/3 hr” value in data set [3] turned out to be 32.9%. Also, the “cholesteryl ester accumulation inhibitory rate (%) (concentration: 10^−6 M)” value in data set [4] was found to be 91.8%. For the same compound, the “liver ACAT inhibition rate (%) (concentration: 10^−6 M)” value in data set [5] is 97.7%.
Take `Cc1cc(NC(=O)[C@@H]2Cc3ccc(CN4CC(F)C4)cc3CN2C(=O)C(C)(C)C)c(C)c(C)c1O.Cl` [Example 141, 2-(2,2-dimethylpropionyl)-7-(3-fluoroazetidin-1-yl)methyl-N-(4-hydroxy-2,3,5-trimethylphenyl)-1,2,3,4-tetrahydroisoquinoline-(3S)-carboxamide hydrochloride]: in data set [1] (room temperature for 60 min), the “inhibitory rate (%) (10^−4M), stable radical” value stood at 63.7%. Besides, the “maximum blood concentration” value in data set [2] came out at 0.49 µg/mL. Further, in data set [4], the “cholesteryl ester accumulation inhibitory rate (%) (concentration: 10^−6 M)” value amounted to 88.0%. Moreover, in data set [6], the “inhibitory rate (%) (10^−4M), lipid peroxidation” value stood at 94.8%.
On the same counts, the results for `COC1CN(Cc2ccc3c(c2)CN(C(=O)C(C)(C)C)[C@H](C(=O)Nc2cc(C)c(O)c(C)c2C)C3)C1.Cl` [Example 143, 2-(2,2-dimethylpropionyl)-N-(4-hydroxy-2,3,5-trimethylphenyl)-7-(3-methoxyazetidin-1-yl)methyl-1,2,3,4-tetrahydroisoquinoline-(3S)-carboxamide hydrochloride] are 61.0%, 0.46 µg/mL, 60.9% and 64.1%.
Consider `C/C=C/C=C/C(=O)N1Cc2cc(N(C)C)ccc2C[C@H]1C(=O)Nc1cc(C)c(O)c(C)c1C.Cl` [Example 70, 7-dimethylamino-2-[(2E,4E)-hexadienoyl]-N-(4-hydroxy-2,3,5-trimethylphenyl)-1,2,3,4-tetrahydroisoquinoline-(3S)-carboxamide hydrochloride], for which the “Cholesterol secretion inhibitory rate (%) (10 mg)/kg/3 hr” value in data set [3] is given as 23.0%.
For `CCC(C)(C)C(=O)N1Cc2cc(N(C)C)ccc2C[C@H]1C(=O)Nc1cc(C)c(O)c(C)c1C.Cl` [Example 69, 7-dimethylamino-2-(2,2-dimethylbutyryl)-N-(4-hydroxy-2,3,5-trimethylphenyl)-1,2,3,4-tetrahydroisoquinoline-(3S)-carboxamide hydrochloride], the “inhibitory rate (%) (10^−4M), stable radical” value in data set [1] (setting [7]) is listed as 97.0%. For the same compound, the “Cholesterol secretion inhibitory rate (%) (10 mg)/kg/3 hr” value in data set [3] is 31.4%. In addition, the “cholesteryl ester accumulation inhibitory rate (%) (concentration: 10^−6 M)” value in data set [4] was 99.4%.
